This note sets out measurements from US20250361241A1, “HPK1 INHIBITOR AND MEDICAL USE THEREOF” (Betta Pharmaceuticals Co., Ltd., priority 2022, published 2025).

A short description of series [1]: PK study of compound in monkeys. In kind it is in vivo. The settings on record: crab-eating monkey. How it is done: Pharmacological Experiment 7: PK Study of Compound in Monkeys
The drug concentration was analyzed by LC-MS/MS method, and the pharmacokinetic parameters were calculated using Phoenix WinNolin software (Pharsight, USA).

The test system of series [2] is Jurkat cells. Briefly: Jurkat IL-2 secretion detection (anti-CD3/CD28 beads, ELISA). Format: cell-based, human. As for the experimental part: Pharmacological Experiment 5: Jurkat IL-2 Secretion Detection
• (1) Take the cultured Jurkat cells, adjust the density to 1×10^6 cells/mL, and inoculate them in a flat-bottom […] plate (Jet Biofil, TCP011096), with 100 μL per well, • (2) Add 50 μL of the test compound to each well and incubate at 37° C. for 30 min; • (3) Take human anti-CD3/CD28 magnetic beads (Miltenyi, 130-091-441), wash once with RPMI-1640 complete medium, and adjust the density to 4×106 beads/mL for later use; • (4) After the compound incubation, 50 μL of anti-human CD3/CD28 magnetic beads were added to each well and cultured at 37° C. for 20 h, • (5) The cell culture supernatant was obtained and the IL-2 secretion was detected using the Human IL-2 DuoSet ELISA kit (R&D, DY008); • (6) The log value of the concentration was used as the X-axis and the IL-2 secretion was used as the Y-axis. The “log (agonist) vs. response-variable slope” equation of the analysis software GraphPad Prism 7 was used to fit the dose-effect curve, thereby obtaining the […] and the […]

The test system of series [3] is mouse colon cancer cell CT26. In words: Efficacy in CT26 CDX model mice (subcutaneous homologous transplant tumor). In kind it is in vivo, Balb/c mouse. The settings on record: after 21 days. How it is done:
Pharmacological Experiment 8; Study on the Efficacy of the Compound in CT26CDX Model Mice […] The first group (G1) was a vehicle control group (10% propylene glycol/5% HS15/85% glucose). The second group (G2) was the control compound D1-administered group. […] Note: PO stands for oral gavage, QD stands for once daily dosing, and BID stands for twice daily dosing. Tumor size and mouse body weight were measured twice a week during the experiment, and the weight of the animals on that day was used as a reference for each drug administration. The tumor size was measured by using a vernier caliper to measure the length (a) and width (b) of the tumor. The tumor volume (TV) was calculated using the following formula: TV=a*b2/2 After 21 days of administration, the tumor growth inhibition rate (TGI) of each administration group is shown in Table 10.

For series [4], the target named is HPK1 (Homo sapiens (Human), UniProt Q92918). Briefly: HPK1 enzyme activity detection (1 mM ATP system), ADP-Glo with MBP substrate, Pharmacological Experiment 2. In kind it is biochemical. A digest of the protocol:
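Compound in DMSO preincubated with HPK1 for 15 min at 25 °C, then reaction started with ATP (1 mM system) and MBP substrate for 60 min at 25 °C. ADP formed quantified by ADP-Glo luminescence; IC50 derived from percentage inhibition.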
On the technique in general: In ADP-Glo the light output rises with the ADP produced.

For series [5], the system named is human peripheral blood mononuclear cells. Briefly: Detection of IFN-γ secretion in human peripheral blood mononuclear cells (anti-CD3/CD28 beads, ELISA). Format: cell-based. How it is done:
Pharmacological Experiment 4: Detection of IFN-γ Secretion in Human Peripheral Blood Monocytes
• (1) Take human peripheral blood mononuclear cells frozen in liquid nitrogen, thaw in a 37° C. water bath, add 5 mL of preheated RPMI-1640 complete medium (containing 10% fetal bovine serum and penicillin/streptomycin), centrifuge at 500 g for 10 minutes, and discard the supernatant; • (2) Resuspend the cells in RPMI-1640 complete medium, adjust the density to 5×10^6 cells/mL, inoculate in a low-adhesion 6-well plate (Corning, 3471), and culture at 37° C. for 2 days; • (3) Collect cultured human peripheral blood mononuclear cells, centrifuge at 500 g for 10 min, and discard the supernatant; • (4) Resuspend the cells in RPMI-1640 complete medium, adjust the density to 1×10^6 cells/mL, and inoculate them in a round-bottom 96-well plate (Jet Biofil, TCP-002-096), with 100 μL per well; • (5) Add 50 μL of the test compound to each well and incubate at 37° C. for 30 min; • (6) Take human anti-CD3/CD28 magnetic beads (Miltenyi, 130-091-441), wash once with RPMI-1640 complete medium, and adjust the density to 0.5×106 beads/mL for later use; • (7) After the compound incubation, 50 μL of anti-human CD3/CD28 magnetic beads were added to each well and cultured at 37° C. for 3 days, • (8) The cell culture supernatant was obtained and the IFN-γ secretion was detected using the Human IFN-gamma DuoSet ELISA kit (R&D, DY285B-05); • (9) The log value of concentration was used as the X-axis and the IFN-γ secretion amount was used as the Y-axis. The “log (agonist) vs. response−variable slope” equation of the analysis software GraphPad Prism 7 was used to fit the dose-effect curve, thereby obtaining the EC3x value and the maximum induction factor of the compound for the secretion of IFN-γ from human peripheral blood mononuclear cells to reach 3 times the baseline.
(In general: ELISA stands for enzyme-linked immunosorbent assay.)

The nature of series [6]: PK study of compound in dogs. The following applies: Beagle dog, PO 5 mg/kg, DMSO/Solutol/saline. Format: in vivo. How it is done: Pharmacological Experiment 6: PK Study of Compound in Dogs The compound was mixed with a solvent of saline or 10% DMSO/5% Solutol/85% saline or 10% DMSO/10% Solutol/80% saline (specific solvents are shown in the table below), vortexed and sonicated to prepare a clear oral solution. […] The drug concentration was analyzed by LC-MS/MS method, and the pharmacokinetic parameters were calculated using Phoenix WinNolin software (Pharsight, USA).

Series [7] deals with GLK (Homo sapiens (Human), UniProt Q8IVH8). Briefly: GLK kinase assay (1 mM ATP system), ADP-Glo. Format: biochemical. A digest of the protocol:
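GLK kinase reaction with 1 mM ATP and MBP substrate ran 60 min at 25 °C after 15 min preincubation of enzyme with compound. ADP formed was detected by ADP-Glo luminescence; percent inhibition used to derive IC50.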

What is called TGI is how far tumour growth fell short of that in controls. In general, IC50 refers to the midpoint of a concentration-inhibition curve. Read a low IC50 as inhibition by little substance.

Chain of GLK (Q8IVH8 whole entry, species assumed): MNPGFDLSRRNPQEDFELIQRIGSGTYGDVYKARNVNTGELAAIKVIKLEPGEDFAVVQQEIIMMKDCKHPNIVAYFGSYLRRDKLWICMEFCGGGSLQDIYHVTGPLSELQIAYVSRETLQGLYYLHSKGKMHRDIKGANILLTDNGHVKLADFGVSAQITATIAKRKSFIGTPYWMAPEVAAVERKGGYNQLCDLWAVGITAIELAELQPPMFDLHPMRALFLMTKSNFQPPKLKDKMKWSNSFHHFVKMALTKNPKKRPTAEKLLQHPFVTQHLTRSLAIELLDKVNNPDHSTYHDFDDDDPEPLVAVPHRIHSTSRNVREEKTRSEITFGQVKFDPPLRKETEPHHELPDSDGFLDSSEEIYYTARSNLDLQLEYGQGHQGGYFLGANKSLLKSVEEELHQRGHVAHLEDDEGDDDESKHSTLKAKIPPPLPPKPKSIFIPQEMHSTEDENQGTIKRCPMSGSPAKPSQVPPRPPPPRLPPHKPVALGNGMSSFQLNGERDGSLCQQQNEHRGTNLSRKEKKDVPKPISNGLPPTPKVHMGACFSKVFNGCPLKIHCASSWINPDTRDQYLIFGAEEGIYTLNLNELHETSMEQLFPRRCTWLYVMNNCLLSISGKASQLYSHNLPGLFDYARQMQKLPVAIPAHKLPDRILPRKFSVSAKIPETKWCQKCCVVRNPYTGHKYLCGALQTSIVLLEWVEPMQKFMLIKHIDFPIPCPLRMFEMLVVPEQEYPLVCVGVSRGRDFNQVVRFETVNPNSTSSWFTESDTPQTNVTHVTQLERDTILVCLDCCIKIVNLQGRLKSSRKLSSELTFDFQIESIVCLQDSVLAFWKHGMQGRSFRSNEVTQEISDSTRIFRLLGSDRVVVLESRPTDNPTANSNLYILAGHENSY
Chain of HPK1 (Q92918 whole entry, species assumed): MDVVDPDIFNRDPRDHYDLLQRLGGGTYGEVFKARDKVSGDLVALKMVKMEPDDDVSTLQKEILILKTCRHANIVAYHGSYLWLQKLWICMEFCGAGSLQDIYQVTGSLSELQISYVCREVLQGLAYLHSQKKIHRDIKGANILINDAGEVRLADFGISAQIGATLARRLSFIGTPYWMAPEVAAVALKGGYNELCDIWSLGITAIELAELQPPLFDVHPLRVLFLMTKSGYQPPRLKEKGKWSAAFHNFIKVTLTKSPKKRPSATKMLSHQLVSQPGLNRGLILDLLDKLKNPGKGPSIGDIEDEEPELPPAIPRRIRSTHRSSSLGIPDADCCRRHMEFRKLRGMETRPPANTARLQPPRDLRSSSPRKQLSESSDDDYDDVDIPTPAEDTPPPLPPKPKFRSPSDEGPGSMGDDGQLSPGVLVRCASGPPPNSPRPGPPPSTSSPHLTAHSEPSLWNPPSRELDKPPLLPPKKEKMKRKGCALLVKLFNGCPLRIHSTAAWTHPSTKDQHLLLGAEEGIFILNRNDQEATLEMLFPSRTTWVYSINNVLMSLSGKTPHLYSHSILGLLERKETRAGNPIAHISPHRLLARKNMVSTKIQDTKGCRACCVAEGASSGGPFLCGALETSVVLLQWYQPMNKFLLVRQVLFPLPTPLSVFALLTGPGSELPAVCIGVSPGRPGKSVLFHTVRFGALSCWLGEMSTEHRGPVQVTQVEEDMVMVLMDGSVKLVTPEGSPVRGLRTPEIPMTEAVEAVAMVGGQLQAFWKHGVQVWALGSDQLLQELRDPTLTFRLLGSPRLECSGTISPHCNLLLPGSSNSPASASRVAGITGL

Take `CN(C)[C@@H]1CC2(CCOCC2)c2ccc(Nc3ccc(-c4cnc5cc(F)ccn45)c4c3C(=O)NC4)nc21` [Compound 2B, (R)-7-((7-(DIMETHYLAMINO)-2′,3′,5′,6,6′,7-HEXAHYDROSPIRO[CYCLOPENTADIENYL[B]PYRIDINE-54′-PYRAN]-2-YL)AMINO)-4-(7-FLUOROIMIDAZO[1,2-A]PYRIDIN-3-YL)ISOINDOLIN-1-ONE]: in series [1] (IV 1 mg/kg), the “IV Plasma Cl_obs” value is reported as 6.16 mL/min/kg. Further, the “Bioavailability F %” value in series [1] (IV 1 mg/kg and PO 5 mg/kg) is 50.2%; in series [6] it was 48.4%. Moreover, the results for the “PO Plasma AUC” value in series [1] (PO 5 mg/kg) and in series [6] were 6302 ng·h/mL and 1082 ng·h/mL, respectively. In addition, the results for the “T1/2” value in series [1] (column beside IV plasma Cl_obs (IV 1 mg/kg)) and in series [6] were 8.81 h and 1.65 h, respectively. Also, the Maximum induction factor is 10.9 in series [2] (IL-2 secretion, Jurkat cells) and 7.7 in series [5] (IFN-γ secretion, human PBMC). Besides, the “EC3x” value in series [2] (concentration for IL-2 secretion of Jurkat cells to reach 3 times the baseline, 20 h) is on record as 90.7 nM; in series [5] (concentration for IFN-γ secretion of human PBMC to reach 3 times the baseline, 3 days), 22 nM. Also, the TGI amounted to 59% in series [3] (25 mg/kg PO QD), 90% in series [3] (75 mg/kg PO BID) and 70% in series [3] (75 mg/kg PO QD). For the same compound, the values for the IC50 in series [4] and in series [7] were 1.02 nM and 464 nM, respectively.
